Results as given in paper PMC4701221, “Novel Promising Estrogenic Receptor Modulators: Cytotoxic and Estrogenic Activity of Benzanilides and Dithiobenzanilides” (PLoS ONE, 2016).

Columns and labels:
[1] = tested on: ERα transfected HEK293 cells; assay: MTT cell viability, ERα transfected HEK293 cells; type: cell-based, human; conditions: 0–100 μM, 72 h, Fig 6B
Description: (§1) Compounds were dissolved in DMSO to the final concentration of 100 μM. A549, CCD39Lu, MCF-7, MDA-MB-231 and MCF-12A cells were seeded in 96 wells plates at density 2x10^4 cells/well and incubated overnight as described above. Subsequently, cells were treated with tested compounds at concentrations: 100 μM; 50 μM; 25μM; 12.5μM; 6 μM; 3 μM; 1.5 μM. […] Cells were incubated 72 h at 37°C in a humidified atmosphere containing 5% CO2 in the cell culture media appropriate for each cell line. Then, the medium was aspirated and 170 μl MTT solution (5mg/ml) was added to each well. Plates were incubated for 2 hours at 37°C, and then plates were centrifuged at 1200 rpm for 3 minutes. […] Absorbance at 570 nm (with reference wavelenght 650 nm) was measured using a plate reader (Biotek Instruments, Elx-800). Cell viability was calculated as a percentage relative to the control.
(§2) Fig 6 Estrogenic and cytotoxic activity of tested compounds in HEK293 cells transfected with wild type ERα receptor or plasmids bearing mutated versions of ERα. […] Results are expressed as mean ± SEM (n = 8). * p < 0.05 was considered statistically significant. […] 48 h after transfection, cells were incubated in the presence of increasing concentrations of compounds 18 for 72 h and cell viability was measured by MTT assay. […]

[2] = target: T1, estrogen receptor (Homo sapiens, UniProt P03372); assay: Estrogen Receptor luciferase assay in MCF-7 cells (endogenous ER); type: cell-based; conditions: MCF-7 transfected with p3xERRE/ERE-luciferase, Fig 3C
T1 construct: MCF-7 cells, which endogenously express ERα receptor; endogenous in cells; host or cells: MCF-7
T1 sequence (P03372 1-595): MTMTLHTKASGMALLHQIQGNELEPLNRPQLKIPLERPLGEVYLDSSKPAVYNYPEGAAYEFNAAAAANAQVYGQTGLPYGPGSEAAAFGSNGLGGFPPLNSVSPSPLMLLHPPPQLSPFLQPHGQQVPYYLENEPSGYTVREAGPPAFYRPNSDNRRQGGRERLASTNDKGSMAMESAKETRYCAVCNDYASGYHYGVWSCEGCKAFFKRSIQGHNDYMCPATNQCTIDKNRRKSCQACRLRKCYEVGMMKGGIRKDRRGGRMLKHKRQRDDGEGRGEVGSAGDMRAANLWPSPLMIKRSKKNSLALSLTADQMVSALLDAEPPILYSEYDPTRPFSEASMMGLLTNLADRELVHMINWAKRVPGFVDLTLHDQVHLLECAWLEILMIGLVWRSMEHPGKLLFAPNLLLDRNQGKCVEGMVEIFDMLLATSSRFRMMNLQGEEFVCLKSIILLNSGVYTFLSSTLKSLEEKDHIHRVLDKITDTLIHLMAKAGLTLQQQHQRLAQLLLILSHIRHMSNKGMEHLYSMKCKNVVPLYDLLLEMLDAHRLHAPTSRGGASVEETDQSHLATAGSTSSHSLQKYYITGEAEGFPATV
Excerpt: To obtain a eukaryotic vector expressing only the ER-α nuclear receptor, a construct was designed by cloning a KpnI-BamHI fragment from plasmid pEGFP-C1-ERα containing the ERα coding sequence that includes a stop signal into the pEGFP-N3 plasmid (Clontech Laboratories, Palo Alto, CA) under the control of the CMV promoter. This construction was termed pEGFP-N-ERα, and although it encoded both human ERα receptor and GFP protein, only the former is expressed. For mock transfections, pEGFP-N3 plasmid was digested with BglII and NotI and religated after polishing DNA ends to remove GFP coding sequence. Plasmid sequence was confirmed by automatic sequencing. Prior to transfection, cells were seeded in 48 well plates at density of 1.5 x 10^4 cells/well and incubated for 24 h to reach a cell confluence of 80–90%. […] MCF-7 cells, which endogenously express ERα receptor, were transfected with p3xERRE/ERE-luciferase plus the pRLTK Renilla luciferase control plasmid (95:5). Firefly and Renilla luciferase activities were measured using the Dual Luciferase Assay System (Promega, Madison, WI, USA), following a standard protocol using a Sirius L luminometer (Berthold Technologies, Bad Wildbad, Germany). Data were expressed as relative changes in luciferase activity and normalized to 100%.

[3] = MTT assay, CCD39Lu; type: cell-based; conditions: human, CCD39Lu cells (non-tumorigenic lung fibroblasts), read-out: Cytotoxic activity IC50, CCD39Lu
Description: (§3) The cell lines used in the cytotoxicity study, besides MCF-12A, were purchased from European Collection of Cell Culture (ECACC, Salisbury, UK): HEK293 (human embryonic kidney, ATTC no. CRL-1573), A549 (Human lung carcinoma, ECACC no. 86012804), CCD39Lu (Human lung fibroblasts, ECACC no. 90110512), MCF-7 (Human breast adenocarcinoma, ECACC no. 86012803) and MDA-MB-231 (Human breast adenocarcinoma ECACC no. 92020424). Cell lines were cultured in DMEM medium without phenol red and supplemented with 10% (v/v) FBS, 1% penicillin-streptomycin and 1% L-glutamine. MCF-12A (ATTC no. […]) was purchased from American Type Culture Collection (ATCC Manassas, VA 20110 USA). MCF-12A cells were kept in 1:1 mixture of Dulbecco’s modified Eagle’s medium and Ham’s F12 medium, 20 ng/ml human epidermal growth factor, 100 ng/ml cholera toxin, 0.01 mg/ml bovine insulin, 500 ng/ml hydrocortisone and 5% horse serum. All cell lines were cultured at 37°C, in a humidified atmosphere containing 5% CO2.
(§4) Compounds were dissolved in DMSO to the final concentration of […]. A549, CCD39Lu, MCF-7, MDA-MB-231 and MCF-12A cells were seeded in 96 wells plates at density 2x10^4 cells/well and incubated overnight as described above. Subsequently, cells were treated with tested compounds at concentrations: 100 μM; 50 μM; 25μM; 12.5μM; 6 μM; 3 μM; 1.5 μM. […] Cells were incubated 72 h at 37°C in a humidified atmosphere containing 5% CO2 in the cell culture media appropriate for each cell line. Then, the medium was aspirated and 170 μl MTT solution (5mg/ml) was added to each well. Plates were incubated for 2 hours at 37°C, and then plates were centrifuged at 1200 rpm for 3 minutes. The formazan crystals were dissolved in 200 μl DMSO and plates were further agitated on a plate shaker at 300–500 rpm for 10 minutes. Absorbance at 570 nm (with reference wavelenght 650 nm) was measured using a plate reader (Biotek Instruments, Elx-800). Cell viability was calculated as a percentage relative to the control.

[4] = tested on: HEK293 cells; assay: MTT cell viability, non-transfected (mock) HEK293 cells; type: cell-based, human; conditions: 0–100 μM, 72 h, Fig 6B
Description: as §1, §2

[5] = MTT assay, MCF-12A; type: cell-based; conditions: human, MCF-12A cells (non-tumorigenic breast epithelial), read-out: Cytotoxic activity IC50, MCF-12A
Description: as §3, §4

[6] = tested on: MDA-MB-231 cells; assay: MTT assay, MDA-MB-231; type: cell-based, human
Description: as §3, §4

Question: For `Fc1ccc(NC(=S)c2ccc(NC(=S)c3ccc(F)cc3)cc2)cc1` [Compound 18], which “Cell viability, ERα transfected HEK293” value [1] is on record?
Answer: significantly decreased cell viability

Question: And the “Transcriptional (luciferase) activity in MCF-7” value [2]?
Answer: significantly higher transcriptional activity compared to estradiol

Question: And the IC50 at 72 h [3]?
Answer: > 100 µM

Question: And the “Cell viability, non-transfected HEK293” value [4]?
Answer: moderate cell toxicity

Question: And the IC50 at 72 h [5]?
Answer: 91.5 µM

Question: And the “Toxicity/effect in MTT assay (in words), MDA-MB-231” value ([6]; 72 h)?
Answer: non-significant effects

Question: What about the IC50 ([6]; Homo sapiens, MDA-MB-231, 72 h, estrogen independent breast adenocarcinoma, read-out: Cytotoxic activity IC50, MDA-MB-231) of the same molecule?
Answer: > 100 µM
